Laboratory results from US7291612B2, “Immunomodulatory compounds” (Active Biotech A.B., priority 2002, dated 2007).
pEC50: −log10 of the molar value.

Biological target: T1, CD80-CD28 interaction (Homo sapiens, UniProt P33681)
T1 construct: mouse Fab fragment (fusion partner)
T1 sequence (P33681 35-242 limits assumed): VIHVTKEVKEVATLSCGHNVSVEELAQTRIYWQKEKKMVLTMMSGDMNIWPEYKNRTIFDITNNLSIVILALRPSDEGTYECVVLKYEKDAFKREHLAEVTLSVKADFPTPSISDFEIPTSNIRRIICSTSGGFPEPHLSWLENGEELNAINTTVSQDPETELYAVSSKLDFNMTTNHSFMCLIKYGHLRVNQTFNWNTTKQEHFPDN
Experiment: cell free Homogenous Time Resolved Fluorescence (HTRF) assay, inhibition of the CD80-CD28 interaction
Assay type: binding
Details: 4 hours at room temperature, read-out: Activity (EC50 in summary form)
Experimental: The examples described above were tested in a cell free Homogenous Time Resolved Fluorescence (HTRF) assay to determine their activity as inhibitors of the CD80-CD28 interaction.
In the assay, europium and allophycocyanin (APC) are associated with CD28 and CD80 indirectly (through antibody linkers) to form a complex, which brings the europium and APC into close proximity to generate a signal. The complex comprises the following six proteins: fluorescent label 1, linker antibody 1, CD28 fusion protein, CD80 fusion protein, linker antibody 2, and fluorescent label 2. The table below describes these reagents in greater detail.
On formation of the complex, europium and APC are brought into proximity and a signal is generated.
Non-specific interaction was measured by substituting a mouse Fab fragment (C215) for the CD80 mouse Fab fragment fusion protein (1.9 μg/ml). The assay was carried out in black 384 well plates in a final volume of 30 μl. Assay buffer: 50 mM Tris-HCl, 150 mM NaCl pH7.8, containing 0.1% BSA (w/v) added just prior to use.
Compounds were added to the above reagents in a concentration series ranging between 100 μM-1.7 nM. The reaction was incubated for 4 hours at room temperature. Dual measurements were made using a Wallac Victor 1420 Multilabel Counter. First measurement: excitation 340 nm, emission 665 nm, delay 50 μs, window time 200 μs. second measurement: excitation 340 nm, emission 615 nm, delay 50 μs, window time 200 μs. Counts were automatically corrected for fluorescence crossover, quenching and background.

Row | Compound | pEC50
1 | O=C(NCCCN1CCCC1=O)c1ccc(-n2nc3c4cccc(F)c4[nH]cc-3c2=O)cc1 [Example 121] | 5.00 to 6.00
2 | O=C(NCCCn1ccnc1)c1ccc(-n2nc3c4cccc(F)c4[nH]cc-3c2=O)cc1 [Example 122] | > 6.00
3 | O=C(NC1CCCCNC1=O)c1ccc(-n2nc3c4cccc(F)c4[nH]cc-3c2=O)cc1 (stereo not drawn) [Example 123] | 5.00 to 6.00
4 | CCN(CC)CCCCNC(=O)c1ccc(-n2nc3c4cccc(F)c4[nH]cc-3c2=O)cc1 [Example 124] | > 6.00
5 | O=C(NC1CCN(Cc2ccccc2)CC1)c1ccc(-n2nc3c4cccc(F)c4[nH]c(C4CC4)c-3c2=O)cc1 [Example 125] | > 6.00
6 | O=C(NCCc1ccccn1)c1ccc(-n2nc3c4cccc(F)c4[nH]cc-3c2=O)cc1 [Example 127] | < 5.00
7 | CSCCCNC(=O)c1ccc(-n2nc3c4cccc(F)c4[nH]cc-3c2=O)cc1 [Example 128] | 5.00 to 6.00
8 | CN1C(C)(C)CC(NC(=O)c2ccc(-n3nc4c5ccccc5[nH]c(C5CC5)c-4c3=O)cc2)CC1(C)C [Example 129] | > 6.00
9 | O=C(NCCCCN1CCCC1)c1ccc(-n2nc3c4cccc(F)c4[nH]c(C4CC4)c-3c2=O)cc1 [Example 130] | > 6.00
10 | CN1C2CCC1CC(NC(=O)c1ccc(-n3nc4c5cccc(F)c5[nH]cc-4c3=O)cc1)C2 (stereo not drawn) [Example 131] | > 6.00
11 | CN(C)CCCNC(=O)c1ccc(-n2nc3c4cccc(F)c4[nH]c(C4CC4)c-3c2=O)cc1 [Example 132] | > 6.00
12 | CN1C2CCC1CC(NC(=O)c1ccc(-n3nc4c5cccc(F)c5[nH]c(C5CC5)c-4c3=O)cc1)C2 (stereo not drawn) [Example 134] | > 6.00
13 | CCN(CC)CCCCNC(=O)c1ccc(-n2nc3c4cccc(F)c4[nH]c(C4CC4)c-3c2=O)cc1 [Example 135] | > 6.00
14 | CC(C)(C)OC(=O)N1CCC(NC(=O)c2ccc(-n3nc4c5cccc(F)c5[nH]c(C5CC5)c-4c3=O)cc2)CC1 [Example 136] | 5.00 to 6.00
15 | O=C(NCCCN1CCN(Cc2c(F)cccc2Cl)CC1)c1ccc(-n2nc3c4cccc(F)c4[nH]c(C4CC4)c-3c2=O)cc1 [Example 137] | > 6.00
16 | O=C(NCCc1ccccn1)c1ccc(-n2nc3c4cccc(F)c4[nH]c(C4CC4)c-3c2=O)cc1 [Example 138] | 5.00 to 6.00
17 | O=C(NCCc1cccnc1)c1ccc(-n2nc3c4cccc(F)c4[nH]c(C4CC4)c-3c2=O)cc1 [Example 139] | < 5.00
18 | CN(C)CC(C)(C)CNC(=O)c1ccc(-n2nc3c4cccc(F)c4[nH]c(C4CC4)c-3c2=O)cc1 [Example 140] | > 6.00
19 | O=C(NCCCN1CCCC1)c1ccc(-n2nc3c4cccc(F)c4[nH]c(C4CC4)c-3c2=O)cc1 [Example 141] | > 6.00
20 | CCOC(=O)CNC(=O)Nc1ccc(-n2nc3c4cccc(F)c4[nH]cc-3c2=O)cc1 [Example 142, {3-[4-(6-Fluoro-3-oxo-3,5-dihydro-pyrazolo[4,3-c]quinolin-2-yl)-phenyl]-ureido} acetic acid ethyl ester] | > 6.00
21 | CCCNC(=O)Nc1ccc(-n2nc3c4cccc(F)c4[nH]cc-3c2=O)cc1 [Example 145] | > 6.00
22 | CC(C)(C)NC(=O)Nc1ccc(-n2nc3c4cccc(F)c4[nH]cc-3c2=O)cc1 [Example 146] | > 6.00
23 | O=C(Nc1ccccc1)Nc1ccc(-n2nc3c4cccc(F)c4[nH]cc-3c2=O)cc1 [Example 147] | 5.00 to 6.00
24 | O=c1c2c[nH]c3c(F)cccc3c-2nn1-c1ccc(NC(=S)NC2CC2)cc1 [Example 148] | 5.00 to 6.00

Row | Compound | pEC50
25 | O=c1c2c[nH]c3c(F)cccc3c-2nn1-c1ccc(NC(=S)NC2CCCCC2)cc1 [Example 149] | < 5.00
26 | CC(C)(C)OC(=O)Nc1ccc(-n2nc3c4cccc(F)c4[nH]cc-3c2=O)cc1 [Example 150] | > 6.00
27 | CCOC(=O)Nc1ccc(-n2nc3c4cccc(F)c4[nH]cc-3c2=O)cc1 [Example 151] | 5.00 to 6.00
28 | CN(C)CCOC(=O)Nc1ccc(-n2nc3c4cccc(F)c4[nH]cc-3c2=O)cc1 [Example 152] | > 6.00
29 | COC(=O)Nc1ccc(-n2nc3c4ccccc4[nH]c(C4CC4)c-3c2=O)cc1 [Example 153] | 5.00 to 6.00
30 | CN(C)CCCOC(=O)Nc1ccc(-n2nc3c4cccc(F)c4[nH]cc-3c2=O)cc1 [Example 154] | > 6.00
31 | O=C(Nc1ccc(-n2nc3c4cccc(F)c4[nH]cc-3c2=O)cc1)OC1CCN(Cc2ccccc2)CC1 [Example 155] | 5.00 to 6.00
32 | CCCCCNC(=S)Nc1ccc(-n2nc3c4cccc(F)c4[nH]cc-3c2=O)cc1 [Example 156] | 5.00 to 6.00
33 | CC(C)C(C)NC(=S)Nc1ccc(-n2nc3c4cccc(F)c4[nH]cc-3c2=O)cc1 (stereo not drawn) [Example 157] | 5.00 to 6.00
34 | CCN(CC)CCCCNC(=O)Nc1ccc(-n2nc3c4cccc(F)c4[nH]cc-3c2=O)cc1 [Example 158] | > 6.00
35 | CCCNC(=O)Nc1ccc(-n2nc3c4ccccc4[nH]cc-3c2=O)cc1 [Example 159] | > 6.00
36 | O=c1c2c[nH]c3ccccc3c-2nn1-c1ccc(NC(=S)NC2CC2)cc1 [Example 160] | 5.00 to 6.00
37 | CN(C)CCCNC(=O)Nc1ccc(-n2nc3c4cccc(F)c4[nH]cc-3c2=O)cc1 [Example 161] | > 6.00
38 | COC(=O)[C@@H](NC(=O)Nc1ccc(-n2nc3c4ccccc4[nH]cc-3c2=O)cc1)C(C)C [Example 162] | > 6.00
39 | CN(C)CCCCNC(=O)Nc1ccc(-n2nc3c4cccc(F)c4[nH]cc-3c2=O)cc1 [Example 163] | > 6.00
40 | O=C(NCCCCN1CCCC1)Nc1ccc(-n2nc3c4cccc(F)c4[nH]cc-3c2=O)cc1 [Example 164] | > 6.00
41 | CN(C)CCCNC(=O)c1ccc(-n2nc3c4ccccc4scc-3c2=O)cc1 [Example 165, N-[3-(dimethylamino)propyl]-4-(3-oxothiochromeno[4,3-c]pyrazol-2(3H)-yl)benzamide] | 5.00 to 6.00
42 | O=C(NCCCNC1CCCCC1)c1ccc(-n2nc3c4ccccc4scc-3c2=O)cc1 [Example 166, N-[(cyclohexylamino)propyl]-4-(3-oxothiochromeno[4,3-c]pyrazol-2(3H)-yl)benzamide] | > 6.00
43 | O=C(NCCCCN1CCCC1)c1ccc(-n2nc3c4ccccc4scc-3c2=O)cc1 [Example 167, N-(pyrrolidin-1-yl-butyl)-4-(3-oxothiochromeno[4,3-c]pyrazol-2(3H)-yl)benzamide] | < 5.00
44 | CN1C(C)(C)CC(NC(=O)c2ccc(-n3nc4c5ccccc5scc-4c3=O)cc2)CC1(C)C [Example 168, 4-(3-oxothiochromeno[4,3-c]pyrazol-2(3H)-yl)-N-1,2,2,6,6-pentamethylpiperidin-4-ylbenzamide] | 5.00 to 6.00
45 | CN(C)CCCNC(=O)c1ccc(-n2nc3c4cccc(F)c4scc-3c2=O)cc1 [Example 169, N-[3-(dimethylamino)propyl]-4-(6-fluoro-3-oxothiochromeno[4,3-c]pyrazol-2(3H)-yl)benzamide] | 5.00 to 6.00
46 | O=C(NCCCNC1CCCCC1)c1ccc(-n2nc3c4cccc(F)c4scc-3c2=O)cc1 [Example 170, N-[(cyclohexylamino)propyl]-4-(6-fluoro-3-oxothiochromeno[4,3-c]pyrazol-2(3H)-yl)benzamide] | 5.00 to 6.00
47 | O=C(NCCCCN1CCCC1)c1ccc(-n2nc3c4cccc(F)c4scc-3c2=O)cc1 [Example 171, N-(pyrrolidin-1-yl-butyl)-4-(6-fluoro-3-oxothiochromeno[4,3-c]pyrazol-2(3H)-yl)benzamide] | > 6.00
48 | CN1C(C)(C)CC(NC(=O)c2ccc(-n3nc4c5cccc(F)c5scc-4c3=O)cc2)CC1(C)C [Example 173, 4-(6-fluoro-3-oxothiochromeno[4,3-c]pyrazol-2(3H)-yl)-N-1,2,2,6,6-pentamethylpiperidin-4-ylbenzamide] | > 6.00
